The text below walks through data of US20130158112A1, “COMPOSITIONS AND METHODS FOR INHIBITING BETA AMYLOID SECRETION” (priority 2011, published 2013).

Each structure is given as a SMILES string. “Also recorded” adds a separate entry of the source. Like-named read-outs stand apart in the source and are kept apart here.

The test system of data set [1] is APP. The data set is described as follows: Western blot of APP processing products (sAPPα, sAPPβ, holoAPP, αCTF) in H4βAPP695 wt cells. It is filed as cell-based, human. To be noted: 10 μM, 24 h. How it is done: The alternate processing of holoAPP by either the β-secretase (a precursor to Aβ production) or α-secretase (which clips in the middle of the Aβ region) is shown in FIG. 2A. Compound 1 induced decrease in total Aβ secretion may be due to its effect on APP processing or due to decreased production of its precursor APP. To probe its mechanism, H4βAPP695 wt cells were treated with 10 μM 1 for 24 h. Using Western blot assays, we measured secreted APPα (sAPPα) and APPβ (sAPPβ) in the conditioned media, and full-length holo-APP and the 83 residue long α-C-terminal fragment (α-CTF) in cell lysate. […] Thus, 1 appears to decrease Aβ secretion by activating the α-secretase pathway, a favorable pathway as the large secreted sAPPα protein is reported to have neurotrophic and neuroprotective activities.
(In western blotting, separated proteins are transferred to a membrane and probed.)

Data set [2] has as its system Aβ secretion. The data set is described as follows: PKC inhibitors experiment on Aβ secretion. It is filed as cell-based, human. How it is done: (§1) H4βAPP695 wt cells, a human […] cell line stably transfected with a wtβAPP695 expression vector construct under the control of a CMV promoter (kindly provided by Dr. Chris Eckman from Mayo Clinic, Florida) were cultured as previously described. Twenty-four hours before drug treatment, the media was replaced with serum-free media. Cells were then incubated with drugs (dissolved in DMSO) or vehicle for 24 h for collection of conditioned media and cell lysates. For the PKC inhibitors experiment, three inhibitors were treated 30 min prior to drug challenge. Primary cortical neurons were prepared from embryonic day 18 APP and presenilin 1 (APPswe, PSEN1dE9) transgenic mice on the C57BL/6 genetic background (Jackson Laboratories, strain no. 5864) as previously described. THLE-3 human hepatoma cells (from ATCC) were plated in 24-well plates that were precoated with 10 μg/mL bovine serum albumin, 10 μg/mL fibronectin, and 30 μg/mL bovine type I collagen. The cells were grown in BEGM media (Clonetics) until confluent and treated with drugs at 20 μM for 24 h. This conditioned media was harvested, diluted 1:1 in serum-free medium, and incubated with H4βAPP695 wt cells for 24 h prior to analysis of secreted Aβ, which was compared to the effect of 10 μM drug treatments without prior incubation with the THLE-3 cells. Caco-2 cells (ATCC) were plated in 12-well plates with Transwell inserts (Costar) at 70000 cells per well and grown for 21 days. The media volume of the apical and basal chambers was 0.5 and 1.5 mL, respectively. Transepithelial resistance was measured in each well and found to be >160 Ω/cm^2. Drugs at 40 μM and 20 μg/mL of lucifer yellow were added in serum-free medium to the apical chamber. Four hours later, the basal chamber media was harvested and used to measure lucifer yellow fluorescence to confirm monolayer integrity as well as for treatment of H4βAPP695 wt cells for 24 h prior to analysis of secreted Aβ, which was compared to the effect of direct addition of 10 μM of the corresponding drug.
The tumor promoter phorbal myristate acetate is an activator of protein kinase C (PKC) that has been reported to activate α-secretase activity. Thus, we wanted to determine if protein kinase C inhibitors could block the effect of compound 1 on Aβ secretion.

Data set [3] has as its system ADAM9. The data set is described as follows: Western blot of pro and active ADAM9 in H4βAPP695 wt cells. It is filed as cell-based, human. The conditions noted are these: 24 h. How it is done:
(§2) Several members of the ADAM (a disintegrin and metalloproteinase) family, ADAM9, ADAM10, and ADAM17, have been reported to have α-secretase activity. […] Using antibodies specific for these three ADAM proteases, we assessed the levels of the pro and active forms in cells cultured with increasing concentrations of compound 1. […] At the 10 μM dose of compound 1, we observed a 31% increase in the ratio of active/pro ADAM9 (p<0.05), N=3 each control and compound 1) and a 42% increase in the ratio active/pro ADAM10 (p<0.05). Although the direct target for compound 1 has not been identified, it seems likely that its mechanism is via the increased ADAM 9 and ADAM10 processing into active α-secretase, which cleaves APP in a manner that precludes Aβ production.

In data set [4] the test system is α-secretase. The data set is described as follows: α-Secretase activity, compound added directly to cell lysates. It is filed as biochemical, human. The conditions noted are these: added to lysates rather than live cells. On the procedure: (§3) H4βAPP695 wt were treated with vehicle or 1 for 24 h, washed with ice cold PBS, and lysed in extraction buffer provided with the α-secretase assay kit (R&D Systems) for 10 min on ice and centrifuged at 10000 g for 1 min to remove nuclei. Protein content of the supernatant was determined by the BCA assay, and 50 μg of lysate protein were added to wells of a 96-well assay plate and the volume was adjusted to 100 μL using the lysis buffer. 100 μL of reaction buffer and 10 μL of the fluorogenic substrate were added, and the plates were incubated at 37° C. in the dark with gentle agitation for 2 h. Activity was detected in a fluorescence plate reader using an excitation of 355 nm and an emission of 510 nm after subtraction of fluorescence in the absence of cell lysate.
(§4) We measured the activity of α-secretase using a fluorogenic peptide substrate in lysates of H4βAPP695 wt cells. […] However, addition of compound 1 directly to the cell lysates, rather than to the live cells, had no effect on α-secretase activity (data not shown), implying an indirect cellular activation of this pathway rather than direct activation of the α-secretase protease by compound 1.

Data set [5] has as its system α-secretase. The data set is described as follows: α-Secretase activity assay in lysates of treated H4βAPP695 wt cells. It is filed as cell-based, human. How it is done:
as §3, §4

The test system of data set [6] is ADAM10. The data set is described as follows: Western blot of pro and active ADAM10 in H4βAPP695 wt cells. It is filed as cell-based, human. To be noted: 24 h. How it is done:
as §2

In data set [7] the test system is ADAM17. Nature of the data set: Western blot of pro and active ADAM17 in H4βAPP695 wt cells. It is filed as cell-based, human. To be noted: increasing concentrations, 24 h. On the procedure: as §2
Data set [8] has as its system H4βAPP695 wt cells. The data set is described as follows: Cytotoxicity by total cell protein content (BCA) of H4βAPP695 wt cells. The conditions noted are these: 10 μM.
Procedure: Cells were washed with cold phosphate buffered saline (PBS) and lysed on ice by vigorous mixing over 15 min with RIPA buffer containing 50 mM Tris-HCl (pH 8.0), 150 mM sodium chloride, 1% NP-40, 0.5% sodium deoxycholate, and 0.1% SDS, supplemented with 10% protease inhibitor cocktail and 2 mM PMSF. After centrifugation at 14000 g for 30 min to remove nuclei and other debris at 4° C., the protein content of the supernatants was measured using the BCA assay kit (Pierce).
The initial screen was performed in 96-well plates with drugs distributed by the hanging drop method yielding estimated drug levels of 10-25 μM. Total Aβ levels in the 24 h conditioned media were measured by a sandwich ELISA assay, and cytotoxicity was assessed by methylene blue staining of the cells in the wells, as previously described.
In data set [9] the test system is THLE-3 human hepatoma cells. Nature of the data set: Drug activity persistence after incubation with THLE-3 hepatoma cells. It is filed as in vitro ADME. The conditions noted are these: Homo sapiens, THLE3, 24 h.
Data set [10] concerns Aβ secretion. Nature of the data set: Secreted total Aβ ELISA in conditioned media of H4βAPP695 wt cells. It is filed as cell-based, human. The conditions noted are these: H4βAPP695 wt cells. The method, boiled down: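 H4 […] cells stably expressing wild-type βAPP695 (CMV promoter), serum-starved 24 h, then exposed to drug in DMSO or vehicle for 24 h before Aβ in conditioned media was measured. Primary cortical neurons came from E18 APPswe/PSEN1dE9 mice on C57BL/6 background.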
A general note: An ELISA detects its analyte on a solid surface through an enzyme-linked reagent.

Data set [11] relates to Aβ secretion. Nature of the data set: Secreted Aβ in cultured primary neurons from APP/PS1 transgenic mice. It is filed as cell-based, mouse. The conditions noted are these: 24 h incubation. How it is done: as §1, with “The cells were grown in BEGM media (Clonetics) until confluent and treated with drugs at 20 μM for 24 h. This conditioned media was harvested, diluted 1:1 in serum-free medium, and incubated with H4βAPP695 wt cells for 24 h prior to analysis of secreted Aβ, which was compared to the effect of 10 μM drug treatments without prior incubation with the THLE-3 cells. Caco-2 cells (ATCC) were plated in 12-well plates with Transwell inserts (Costar) at 70000 cells per well and grown for 21 days. The media volume of the apical and basal chambers was 0.5 and 1.5 mL, respectively.” left out, “Drugs at 40 μM and 20 μg/mL of lucifer yellow were added in serum-free medium to the apical chamber.” left out

Take `O=C(NCCSCc1cccc(Cl)c1)c1c(Cl)cccc1Cl` [Compound 1]: in data set [1], the “cellular full length (holo) APP level” value was “without altering holoAPP levels”, the “increase of cellular α-CTF levels” value was “over 2 fold”, the “increase of sAPPα levels” value is recorded as “over 3 fold” and the “sAPPα level” value is reported as “caused an increase; also recorded: increased”. For the same compound, in data set [1], the sAPPβ level entry is on record as “without altering” and the “αCTF level” value is “caused an increase; also recorded: increased”. The “effect on Aβ secretion in presence of PKC inhibitors” value in data set [2] is recorded as “not blocked by PKC inhibitors”. Further, the “increase in the ratio of active/pro ADAM9” value in data set [3] (10 μM) is reported as 31%. In data set [3] (increasing doses), the “active ADAM9 / processing of ADAM9” value was “dose dependent increase; also recorded: promotes cellular processing”. Further, the “α-secretase activity on direct addition to cell lysates” value in [4] is “no effect”. In addition, the “α-secretase activity after treatment of cells” value in data set [5] is recorded as “induced”. For the same compound, the “increase in α-secretase activity” value in data set [5] (cells pretreated with 10 μM for 24 h) was found to be 20%. Moreover, the “increase in the ratio active/pro ADAM10” value in data set [6] (10 μM) amounted to 42%. Moreover, in data set [6] (increasing doses), the “active ADAM10 / processing of ADAM10” value is given as “dose dependent increase; also recorded: promotes cellular processing”. In addition, the “active form of ADAM17” value in data set [7] was “did not observe much effect”. Further, the “cytotoxicity, measured by total cell protein content” value in [8] is “did not have significant cytotoxicity”. The inhibition at 10 µM in data set [9] (10 μM on H4 cells, without preincubation with hepatoma cells, read-out: hepatoma incubation No total Aβ (% decrease)) is 69.4%. Further, the inhibition at 10 µM in data set [9] (20 μM preincubated 24 h with THLE-3 hepatoma cells, diluted to 10 μM on H4 cells, read-out: hepatoma incubation Yes total Aβ (% decrease)) was found to be 34.6%. Also, the Aβ lowering activity result in [10] (1 μM) is reported as “displayed Aβ lowering activity at 1 μM”. Moreover, the “% β Decrease” value in data set [10] (10 μM, relative to vehicle treated control cells) was 75.3%. The inhibition at 10 µM in data set [10] (Homo sapiens, 24 h, 10 μM, relative to vehicle treated control cells, read-out: % β Decrease) amounted to 75.3 ± 11.6%. The “secreted Aβ levels in primary neurons” value in data set [11] is recorded as “effective in reducing secreted Aβ levels”.
